Assay results as given in US12435057B2, “Triazole carboxylic acids as LPA antagonists” (BRISTOL-MYERS SQUIBB COMPANY, priority 2019, dated 2025).
Where a name gives a salt, the structure may show the parent alone.

Target: T1, human LPA1 (Homo sapiens, UniProt Q92633)
T1 construct: expressed in transfected cells; host or cells: Chinese hamster ovary (CHO) cells
Assay: LPA1 functional antagonist assay (calcium flux)
Type: cell-based
Conditions: CHO cells overexpressing human LPA1; inhibition of calcium flux induced by 10 nM LPA; read-out: hLPA1 IC50
Protocol: The effectiveness of compounds of the present invention as LPA1 inhibitors can be determined in an LPA1 functional antagonist assay as follows: • Chinese hamster ovary cells overexpressing human LPA1 were plated overnight (15,000 cells/well) in poly-D-lysine coated 384-well microplates (Greiner bio-one, Cat #781946) in DMEM/F12 medium (Gibco, Cat #11039). Following overnight culture, cells were loaded with calcium indicator dye (AAT Bioquest Inc, Cat #34601) for 30 minutes at 37° C. The cells were then equilibrated to room temperature for 30 minutes before the assay. Test compounds solubilized in DMSO were transferred to 384 well non-binding surface plates (Corning, Cat #3575) using the Labcyte Echo acoustic dispense and diluted with assay buffer [[…] with calcium/magnesium (Gibco Cat #14025-092), 20 mM HEPES (Gibco Cat #15630-080) and 0.1% fatty acid free BSA (Sigma Cat #A9205)] to a final concentration of 0.5% DMSO. Diluted compounds were added to the cells by FDSS6000 (Hamamatsu) at final concentrations ranging from 0.08 nM to 5 μM. and were then incubated for 20 min at room temperature at which time LPA (Avanti Polar Lipids Cat #857130C) was added at final concentrations of 10 nM to stimulate the cells. The compound IC50 value was defined as the concentration of test compound which inhibited 50% of the calcium flux induced by LPA alone. IC50 values were determined by fitting data to a 4-parameter logistic equation (GraphPad Prism, San Diego CA). b. In Vivo Assays LPA Challenge with Plasma Histamine Evaluation.

T1 sequence (Q92633 whole entry): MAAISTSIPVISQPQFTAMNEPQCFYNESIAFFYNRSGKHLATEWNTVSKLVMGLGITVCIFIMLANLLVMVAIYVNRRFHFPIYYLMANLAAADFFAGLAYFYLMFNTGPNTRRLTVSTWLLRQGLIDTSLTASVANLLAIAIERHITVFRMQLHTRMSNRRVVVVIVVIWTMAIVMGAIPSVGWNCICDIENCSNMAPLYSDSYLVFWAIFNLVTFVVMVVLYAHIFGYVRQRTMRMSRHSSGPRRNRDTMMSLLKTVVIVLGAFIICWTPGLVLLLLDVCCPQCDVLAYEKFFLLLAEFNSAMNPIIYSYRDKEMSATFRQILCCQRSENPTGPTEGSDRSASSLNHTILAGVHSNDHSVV

**Q.** `Cc1nc(-c2nnn(C)c2COC(=O)N(C)CC2CCC2)ccc1O[C@H]1CC2C[C@H]2[C@@H](C(=O)O)C1` (single isomer, unassigned) [Example 9] was tested. Which IC50 did it give?
**A.** 582 nM

**Q.** For `Cc1nc(-c2nnn(C)c2COC(=O)N(C)CC2CCC2)ccc1O[C@@H]1CCC[C@@]2(C(=O)O)C[C@@H]12` (single isomer, unassigned) [Example 11], which IC50 is on record?
**A.** 130 nM

**Q.** With `Cc1nc(-c2nnn(C)c2COC(=O)N(C)CC2CCC2)ccc1O[C@H]1CCC[C@]2(C(=O)O)C[C@H]12` (single isomer, unassigned) [Example 12] as the compound, how does the IC50 read?
**A.** 278 nM

**Q.** Which IC50 does the source give for `Cc1nc(-c2nnn(C)c2COC(=O)N(C)CC2CCC2)ccc1O[C@@H]1CC[C@H]2C(C(=O)O)[C@@H]12` (single isomer, unassigned) [Example 42] here?
**A.** 619 nM

**Q.** `Cc1nc(-c2nnn(C)c2COC(=O)N(C)CC2CCC2)ccc1O[C@H]1CC[C@@H]2[C@@H](C(=O)O)[C@@H]21` (single isomer, unassigned) [Example 43] was tested. Which IC50 did it give?
**A.** 15 nM

**Q.** With `Cc1nc(-c2nnn(C)c2COC(=O)N(C)CC2CCC2)ccc1O[C@@H]1CC[C@H]2C(C(=O)O)[C@@H]12` (single isomer, unassigned) [Example 44, TFA Salt] as the compound, how does the IC50 read?
**A.** 65 nM

**Q.** How did the IC50 turn out when `Cc1nc(-c2nnn(C)c2COC(=O)N(C)CC2CCC2)ccc1O[C@@H]1CC[C@H]2C(C(=O)O)[C@@H]12` (single isomer, unassigned) [Example 45] was run?
**A.** 92 nM

**Q.** How did the IC50 turn out when `Cc1nc(-c2nnn(C)c2COC(=O)N(C)CC2CCC2)ccc1O[C@H]1CC[C@@H]2[C@@H](C(=O)O)[C@@H]21` (single isomer, unassigned) [Example 46] was run?
**A.** 2010 nM

**Q.** For `CCCN(C)C(=O)OCc1c(-c2ccc(O[C@H]3C[C@H](C(=O)O)[C@@H]4C[C@@H]43)c(C)n2)nnn1C` [Example 13], which IC50 is on record?
**A.** 793 nM

**Q.** For `CCCCN(C)C(=O)OCc1c(-c2ccc(O[C@H]3C[C@H](C(=O)O)[C@@H]4C[C@@H]43)c(C)n2)nnn1C` [Example 14], which IC50 is on record?
**A.** 143 nM

**Q.** Which IC50 does the source give for `Cc1nc(-c2nnn(C)c2CNc2noc(CC3CC3)n2)ccc1O[C@H]1C[C@H](C(=O)O)[C@@H]2C[C@@H]21` [Example 15] here?
**A.** 1050 nM

**Q.** With `Cc1nc(-c2nnn(C)c2NC(=O)OCC2CC2)ccc1O[C@H]1C[C@H](C(=O)O)[C@@H]2C[C@@H]21` [Example 16] as the compound, how does the IC50 read?
**A.** 1.43 nM

**Q.** Which IC50 does the source give for `CCCCN(C)C(=O)OCc1c(-c2ccc(O[C@@H]3COC[C@@H](C(=O)O)C3)c(C)n2)nnn1C` [Example 18] here?
**A.** 174 nM

**Q.** For `CCCCCN(C)C(=O)OCc1c(-c2ccc(O[C@@H]3COC[C@@H](C(=O)O)C3)c(C)n2)nnn1C` [Example 19], which IC50 is on record?
**A.** 151 nM

**Q.** For `Cc1nc(-c2nnn(C)c2COC(=O)N(C)CCC(C)C)ccc1O[C@@H]1COC[C@@H](C(=O)O)C1` [Example 20], which IC50 is on record?
**A.** 222 nM

**Q.** How did the IC50 turn out when `Cc1nc(-c2nnn(C)c2COC(=O)N(C)CC2CCC2)ccc1O[C@@H]1COC[C@@H](C(=O)O)C1` [Example 21] was run?
**A.** 168 nM

**Q.** How did the IC50 turn out when `Cc1nc(-c2nnn(C)c2COC(=O)N(C)CC2CCCC2)ccc1O[C@@H]1COC[C@@H](C(=O)O)C1` [Example 22A] was run?
**A.** 160 nM

**Q.** Which IC50 does the source give for `Cc1nc(-c2nnn(C)c2COC(=O)N(C)Cc2ccccc2)ccc1O[C@@H]1COC[C@@H](C(=O)O)C1` [Example 22B] here?
**A.** 178 nM

**Q.** `Cc1nc(-c2nnn(C)c2Cn2nncc2CC2CCCC2)ccc1O[C@H]1COC[C@H](C(=O)O)C1` [Example 25] was tested. Which IC50 did it give?
**A.** 931 nM

**Q.** How did the IC50 turn out when `Cc1nc(-c2nnn(C)c2Cn2cc(CC3CCCC3)nn2)ccc1O[C@H]1COC[C@H](C(=O)O)C1` [Example 26] was run?
**A.** 772 nM

**Q.** With `Cc1nc(-c2nnn(C)c2Cn2ncc(CC3CCCC3)n2)ccc1O[C@H]1COC[C@H](C(=O)O)C1` [Example 27] as the compound, how does the IC50 read?
**A.** 110 nM

**Q.** `Cc1nc(-c2nnn(C)c2COC(=O)N(C)Cc2ccccc2)ccc1O[C@H]1COC[C@@H](C(=O)O)C1` [Example 29] was tested. Which IC50 did it give?
**A.** 594 nM

**Q.** `CCCCN(C)C(=O)OCc1c(-c2ccc(O[C@H]3COC[C@@H](C(=O)O)C3)c(C)n2)nnn1C` [Example 30] was tested. Which IC50 did it give?
**A.** 236 nM

**Q.** For `CCCCCN(C)C(=O)OCc1c(-c2ccc(O[C@H]3COC[C@@H](C(=O)O)C3)c(C)n2)nnn1C` [Example 31], which IC50 is on record?
**A.** 2.29 nM

**Q.** How did the IC50 turn out when `Cc1nc(-c2nnn(C)c2COC(=O)N(C)CC2CCC2)ccc1O[C@H]1COC[C@@H](C(=O)O)C1` [Example 32] was run?
**A.** 348 nM

**Q.** Which IC50 does the source give for `CCCCN(C)C(=O)OCc1c(-c2ccc(O[C@H]3CCO[C@@H](C(=O)O)C3)c(C)n2)nnn1C` [Example 35] here?
**A.** 644 nM

**Q.** `Cc1nc(-c2nnn(C)c2COC(=O)N(C)C2CCCC2)ccc1O[C@H]1CCO[C@@H](C(=O)O)C1` [Example 36] was tested. Which IC50 did it give?
**A.** 713 nM

**Q.** With `CCCCN(C)C(=O)OCc1c(-c2ccc(O[C@H]3CCO[C@H](C(=O)O)C3)c(C)n2)nnn1C` [Example 37] as the compound, how does the IC50 read?
**A.** 225 nM

**Q.** For `CCCN(C)C(=O)OCc1c(-c2ccc(O[C@H]3CCO[C@H](C(=O)O)C3)c(C)n2)nnn1C` [Example 38], which IC50 is on record?
**A.** 2010 nM

**Q.** With `Cc1nc(-c2nnn(C)c2COC(=O)N(C)C2CCCC2)ccc1O[C@H]1CCO[C@H](C(=O)O)C1` [Example 39] as the compound, how does the IC50 read?
**A.** 313 nM

**Q.** With `Cc1nc(-c2nnn(C)c2COC(=O)N(C)CC2CCC2)ccc1O[C@H]1CCO[C@H](C(=O)O)C1` [Example 40] as the compound, how does the IC50 read?
**A.** 158 nM

**Q.** `Cc1nc(-c2nnn(C)c2CNC(=O)OCc2ccccc2)ccc1O[C@@H]1CCC2C(C(=O)O)C21` (some centres unmarked) [Example 53] was tested. Which IC50 did it give?
**A.** 16 nM

**Q.** With `Cc1nc(-c2nnn(C)c2CNC(=O)OCC(C)(C)C)ccc1O[C@@H]1CCC2C(C(=O)O)C21` (some centres unmarked) [Example 54] as the compound, how does the IC50 read?
**A.** 275 nM

**Q.** For `Cc1nc(-c2nnn(C)c2CNC(=O)OC2CCCC2)ccc1O[C@@H]1CCC2C(C(=O)O)C21` (some centres unmarked) [Example 55], which IC50 is on record?
**A.** 83 nM

**Q.** How did the IC50 turn out when `CCCCOC(=O)NCc1c(-c2ccc(O[C@@H]3CCC4C(C(=O)O)C43)c(C)n2)nnn1C` (some centres unmarked) [Example 56] was run?
**A.** 155 nM

**Q.** With `CCCOc1ccnc(NCc2c(-c3ccc(O[C@@H]4CC[C@H]5C(C(=O)O)[C@@H]45)c(C)n3)nnn2C)n1` (some centres unmarked) [Example 57] as the compound, how does the IC50 read?
**A.** 35 nM

**Q.** `CCCCN(C)C(=O)OCc1c(-c2ccc(O[C@@H]3CC[C@H]4C(C(=O)O)[C@@H]34)c(C)n2)nnn1C` (some centres unmarked) [Example 58] was tested. Which IC50 did it give?
**A.** 46 nM

**Q.** How did the IC50 turn out when `Cc1nc(-c2nnn(C)c2COC(=O)N(C)CC2CC2)ccc1O[C@@H]1CC[C@H]2C(C(=O)O)[C@@H]12` (some centres unmarked) [Example 59] was run?
**A.** 313 nM

**Q.** For `Cc1nc(-c2nnn(C)c2COC(=O)N(C)CC(C)C)ccc1O[C@@H]1CC[C@H]2C(C(=O)O)[C@@H]12` (some centres unmarked) [Example 60], which IC50 is on record?
**A.** 313 nM

**Q.** With `Cc1nc(-c2nnn(C)c2COC(=O)N(C)C2CCC2)ccc1O[C@@H]1CC[C@H]2C(C(=O)O)[C@@H]12` (some centres unmarked) [Example 61] as the compound, how does the IC50 read?
**A.** 98 nM

**Q.** `Cc1nc(-c2nnn(C)c2COC(=O)N(C)C2CCCC2)ccc1O[C@@H]1CC[C@H]2C(C(=O)O)[C@@H]12` (some centres unmarked) [Example 62] was tested. Which IC50 did it give?
**A.** 145 nM

**Q.** `Cc1nc(-c2nnn(C)c2COC(=O)NCc2ccccc2)ccc1O[C@@H]1CC[C@H]2C(C(=O)O)[C@@H]12` (some centres unmarked) [Example 63] was tested. Which IC50 did it give?
**A.** 264 nM

**Q.** How did the IC50 turn out when `Cc1nc(-c2nnn(C)c2NC(=O)OCc2ccccc2)ccc1O[C@@H]1CC[C@H]2C(C(=O)O)[C@@H]12` (some centres unmarked) [Example 64] was run?
**A.** 125 nM

**Q.** How did the IC50 turn out when `CN(C(=O)OCc1c(-c2ccc(OC3CC4C(C3)C4C(=O)O)cn2)nnn1C)C1CCCC1` (centres unmarked) [Example 65] was run?
**A.** 440 nM

**Q.** Which IC50 does the source give for `CN(CC1CCC1)C(=O)OCc1c(-c2ccc(OC3CC4C(C3)C4C(=O)O)cn2)nnn1C` (centres unmarked) [Example 66] here?
**A.** 322 nM

**Q.** How did the IC50 turn out when `Cc1nc(-c2nnn(C)c2COC(=O)N(C)CC2CCC2)ccc1OC1CC2C(C1)C2C(=O)O` (centres unmarked) [Example 67] was run?
**A.** 262 nM

**Q.** `CN(CC1CCC1)C(=O)OCc1c(-c2ccc(O[C@@H]3CC[C@H]4C(C(=O)O)[C@@H]34)cn2)nnn1C` (some centres unmarked) [Example 70] was tested. Which IC50 did it give?
**A.** 81 nM
